“And” between values parts separate entries of the source, which are not always exact repeats. Identical values can stand only once.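 Each compound was tested at five concentrations against cells in 96-well plates for 48 hours. Abbreviation: GI50, concentration required for 50% inhibition of growth. The concentration for full growth arrest is given as TGI.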
Columns and labels:
Experiment in all cases: inhibition of tumour cell growth, NCI panel, 48 h; in the data active = GI50 below about 0.43 µM; inactive = the rest
ACHN renal = tested on: ACHN renal
HCT-116 colon = tested on: HCT-116 colon
KM12 colon = tested on: KM12 colon
M14 melanoma = tested on: M14 melanoma
NCI-H23 lung = tested on: NCI-H23 lung
OVCAR-3 ovarian = tested on: OVCAR-3 ovarian
OVCAR-8 ovarian = tested on: OVCAR-8 ovarian
RPMI-8226 leukemia = tested on: RPMI-8226 leukemia
SK-MEL-28 melanoma = tested on: SK-MEL-28 melanoma
SNB-19 CNS = tested on: SNB-19 CNS

C=C1CC2(CC(c3ccccc3Cl)OC(c3ccccc3Cl)C2)OC1=O (stereo not drawn)
9.82 µM: TGI (ACHN renal)
3.84 µM: TGI (RPMI-8226 leukemia)
4.71 µM: TGI (OVCAR-8 ovarian)
5.96 µM: TGI (OVCAR-3 ovarian)
3.65 µM: TGI (SK-MEL-28 melanoma)
3.17 µM: TGI (HCT-116 colon)
29.5 µM: TGI (SNB-19 CNS)
3.39 µM: TGI (M14 melanoma)
9.03 µM: TGI (NCI-H23 lung)
7.56 µM: TGI (KM12 colon)

O=C1/C=C/[C@@H](O)[C@@H]2C[C@@H](O)C[C@H]2/C=C/CCC[C@H](CCc2cccc3ccccc23)O1
active: GI50 (ACHN renal) 0.305 µM | GI50 (HCT-116 colon) 0.12 µM | GI50 (KM12 colon) 0.032 µM | GI50 (M14 melanoma) 0.0492 µM | GI50 (NCI-H23 lung) 0.0637 µM | GI50 (OVCAR-3 ovarian) 0.0395 µM | GI50 (OVCAR-8 ovarian) 0.0491 µM | GI50 (RPMI-8226 leukemia) 0.0847 µM | GI50 (SK-MEL-28 melanoma) 0.0313 µM | GI50 (SNB-19 CNS) 0.0923 µM
12.5 µM: TGI (ACHN renal)
8.58 µM: TGI (M14 melanoma)
0.163 µM: TGI (SK-MEL-28 melanoma)
1.83 µM: TGI (OVCAR-3 ovarian)
0.283 µM: TGI (HCT-116 colon)
0.959 µM: TGI (KM12 colon)
22 µM: TGI (SNB-19 CNS)
1.9 µM: TGI (NCI-H23 lung)
13 µM: TGI (OVCAR-8 ovarian)
2.73 µM: TGI (RPMI-8226 leukemia)

CO[C@H]1C=CO[C@@]2(C)Oc3c(C)c(O)c4c(O)c(c(CN5CCN(C)CC5)c(O)c4c3C2=O)NC(=O)/C(C)=C\C=C[C@H](C)[C@H](O)C(C)[C@@H](O)C(C)[C@H](OC(C)=O)[C@@H]1C (stereo partly drawn)
35.9 µM: TGI (HCT-116 colon)
> 100 µM: TGI (ACHN renal) | TGI (KM12 colon) | TGI (OVCAR-8 ovarian) | TGI (SK-MEL-28 melanoma) | TGI (SNB-19 CNS)
> 87.4 µM: TGI (RPMI-8226 leukemia)
> 77.6 µM: TGI (NCI-H23 lung)
> 75 µM: TGI (M14 melanoma)
14.4 µM: TGI (OVCAR-3 ovarian)

Cn1c(=O)c(Oc2ccc(F)cc2F)cc2cnc(NC(C)(C)CO)nc21
inactive: GI50 (ACHN renal) > 25 µM | GI50 (HCT-116 colon) > 25 µM | GI50 (KM12 colon) > 25 µM | GI50 (M14 melanoma) > 25 µM | GI50 (NCI-H23 lung) > 25 µM | GI50 (OVCAR-3 ovarian) > 25 µM | GI50 (OVCAR-8 ovarian) > 25 µM | GI50 (RPMI-8226 leukemia) > 25 µM | GI50 (SK-MEL-28 melanoma) > 25 µM | GI50 (SNB-19 CNS) > 25 µM
> 25 µM: TGI (ACHN renal) | TGI (HCT-116 colon) | TGI (KM12 colon) | TGI (M14 melanoma) | TGI (NCI-H23 lung) | TGI (OVCAR-3 ovarian) | TGI (OVCAR-8 ovarian) | TGI (RPMI-8226 leukemia) | TGI (SK-MEL-28 melanoma) | TGI (SNB-19 CNS)

CCN(CC)CCCC(C)Nc1ccnc2cc(Cl)ccc12 (stereo not drawn)
69.6 µM: TGI (RPMI-8226 leukemia)
> 100 µM: TGI (ACHN renal) | TGI (KM12 colon) | TGI (NCI-H23 lung) | TGI (OVCAR-8 ovarian) | TGI (SNB-19 CNS)
75.6 µM and > 100 µM: TGI (OVCAR-3 ovarian)
> 100 µM and 42 µM: TGI (HCT-116 colon)
inactive: GI50 (ACHN renal) > 100 µM | GI50 (HCT-116 colon) 25.6 µM | GI50 (KM12 colon) 79.5 µM | GI50 (M14 melanoma) 18.5 µM | GI50 (OVCAR-3 ovarian) 22.3 µM | GI50 (OVCAR-8 ovarian) 57.5 µM | GI50 (SK-MEL-28 melanoma) 39.9 µM | GI50 (SNB-19 CNS) > 100 µM
32.5 µM and 28.4 µM: TGI (M14 melanoma)
> 100 µM and 42.3 µM: TGI (SK-MEL-28 melanoma)

CCCCOC(=O)c1ccc(N)cc1
> 100 µM: TGI (ACHN renal) | TGI (HCT-116 colon) | TGI (KM12 colon) | TGI (M14 melanoma) | TGI (NCI-H23 lung) | TGI (OVCAR-3 ovarian) | TGI (OVCAR-8 ovarian) | TGI (RPMI-8226 leukemia) | TGI (SK-MEL-28 melanoma) | TGI (SNB-19 CNS)
inactive: GI50 (ACHN renal) 8.46 µM | GI50 (HCT-116 colon) 90 µM | GI50 (KM12 colon) 29.8 µM | GI50 (M14 melanoma) 41.1 µM | GI50 (NCI-H23 lung) > 100 µM | GI50 (OVCAR-3 ovarian) 68 µM | GI50 (OVCAR-8 ovarian) > 100 µM | GI50 (RPMI-8226 leukemia) 67.2 µM | GI50 (SK-MEL-28 melanoma) > 100 µM | GI50 (SNB-19 CNS) 75.2 µM

O=C(Nc1ccc(Cc2ccccc2)cc1)Nc1nn(C(=O)Nc2ccc(Cc3ccccc3)cc2)c2ccccc12
> 100 µM: TGI (ACHN renal) | TGI (HCT-116 colon) | TGI (KM12 colon) | TGI (M14 melanoma) | TGI (NCI-H23 lung) | TGI (OVCAR-3 ovarian) | TGI (OVCAR-8 ovarian) | TGI (RPMI-8226 leukemia) | TGI (SK-MEL-28 melanoma) | TGI (SNB-19 CNS)
inactive: GI50 (ACHN renal) > 100 µM | GI50 (HCT-116 colon) > 100 µM | GI50 (KM12 colon) > 100 µM | GI50 (M14 melanoma) > 100 µM | GI50 (NCI-H23 lung) > 100 µM | GI50 (OVCAR-3 ovarian) > 100 µM | GI50 (OVCAR-8 ovarian) > 100 µM | GI50 (RPMI-8226 leukemia) > 100 µM | GI50 (SK-MEL-28 melanoma) > 100 µM | GI50 (SNB-19 CNS) > 100 µM

CN(C)CCCN(CCC1CCCCC1)CCC1CCCCC1
1.18 µM: TGI (SK-MEL-28 melanoma)
3.86 µM: TGI (RPMI-8226 leukemia)
18.8 µM: TGI (SNB-19 CNS)
17.9 µM: TGI (NCI-H23 lung)
inactive: GI50 (ACHN renal) 4.14 µM | GI50 (HCT-116 colon) 1.57 µM | GI50 (KM12 colon) 1.78 µM | GI50 (M14 melanoma) 1.87 µM | GI50 (NCI-H23 lung) 4.8 µM | GI50 (OVCAR-3 ovarian) 2.11 µM | GI50 (OVCAR-8 ovarian) 3.12 µM | GI50 (SK-MEL-28 melanoma) 0.593 µM | GI50 (SNB-19 CNS) 5.63 µM
14.4 µM: TGI (ACHN renal)
3.66 µM: TGI (M14 melanoma)
7.12 µM: TGI (OVCAR-8 ovarian)
3.64 µM: TGI (HCT-116 colon)
active: GI50 (RPMI-8226 leukemia) 0.424 µM
3.44 µM: TGI (KM12 colon)
5.63 µM: TGI (OVCAR-3 ovarian)

CSc1c(C2=C(c3cn(C)c4ccccc34)C(=O)NC2=O)c2ccccc2n1C
> 7.04 µM: TGI (RPMI-8226 leukemia)
2 µM: TGI (OVCAR-3 ovarian)
inactive: GI50 (ACHN renal) 0.845 µM | GI50 (HCT-116 colon) 1.04 µM | GI50 (KM12 colon) 0.843 µM | GI50 (M14 melanoma) 0.649 µM | GI50 (NCI-H23 lung) 1.39 µM | GI50 (OVCAR-3 ovarian) 0.629 µM | GI50 (OVCAR-8 ovarian) 1.56 µM | GI50 (RPMI-8226 leukemia) 0.813 µM | GI50 (SK-MEL-28 melanoma) 1.85 µM | GI50 (SNB-19 CNS) > 25 µM
> 25 µM: TGI (ACHN renal) | TGI (HCT-116 colon) | TGI (KM12 colon) | TGI (M14 melanoma) | TGI (NCI-H23 lung) | TGI (OVCAR-8 ovarian) | TGI (SK-MEL-28 melanoma) | TGI (SNB-19 CNS)

O=C(O)C[C@@H](Cl)[C@H](NC(=O)OCc1ccccc1)C(=O)O
> 100 µM: TGI (ACHN renal) | TGI (HCT-116 colon) | TGI (KM12 colon) | TGI (M14 melanoma) | TGI (NCI-H23 lung) | TGI (OVCAR-3 ovarian) | TGI (OVCAR-8 ovarian) | TGI (RPMI-8226 leukemia) | TGI (SK-MEL-28 melanoma) | TGI (SNB-19 CNS)

O=C(O)[C@H](Cc1c[nH]c2ccccc12)N1C(=O)c2ccccc2C1=O
> 100 µM: TGI (ACHN renal) | TGI (HCT-116 colon) | TGI (KM12 colon) | TGI (M14 melanoma) | TGI (NCI-H23 lung) | TGI (OVCAR-3 ovarian) | TGI (OVCAR-8 ovarian) | TGI (RPMI-8226 leukemia) | TGI (SK-MEL-28 melanoma) | TGI (SNB-19 CNS)
inactive: GI50 (OVCAR-8 ovarian) > 100 µM

O=C(/C=C/c1ccc(Cl)cc1)c1ccccc(=O)c1O
11.8 µM: TGI (SNB-19 CNS)
> 100 µM: TGI (OVCAR-8 ovarian)
10.4 µM: TGI (HCT-116 colon)
20.1 µM: TGI (M14 melanoma)
6.66 µM: TGI (ACHN renal)
4.79 µM: TGI (RPMI-8226 leukemia)
26.4 µM: TGI (SK-MEL-28 melanoma)
18.1 µM: TGI (NCI-H23 lung)
6.45 µM: TGI (KM12 colon)
19.8 µM: TGI (OVCAR-3 ovarian)

C=C(CN1CCN(c2ccc(C(F)(F)F)cc2)CC1)c1ccc(C(=O)Nc2ccccc2N)cc1
active: GI50 (RPMI-8226 leukemia) 0.405 µM
inactive: GI50 (ACHN renal) 9.64 µM | GI50 (HCT-116 colon) 11.4 µM | GI50 (KM12 colon) 7.64 µM | GI50 (M14 melanoma) > 90.5 µM | GI50 (NCI-H23 lung) 9.49 µM | GI50 (OVCAR-3 ovarian) 12 µM | GI50 (OVCAR-8 ovarian) 6.95 µM | GI50 (SK-MEL-28 melanoma) > 100 µM | GI50 (SNB-19 CNS) 12.5 µM
73.5 µM: TGI (SNB-19 CNS)
> 100 µM: TGI (ACHN renal) | TGI (HCT-116 colon) | TGI (KM12 colon) | TGI (M14 melanoma) | TGI (NCI-H23 lung) | TGI (OVCAR-3 ovarian) | TGI (OVCAR-8 ovarian) | TGI (SK-MEL-28 melanoma)

N#CC(/C(CCC(=O)Nc1ccc(Cl)cc1)=N/NC(=O)c1cc2ccccc2cc1O)c1ccccc1 (stereo not drawn)
> 100 µM: TGI (ACHN renal) | TGI (HCT-116 colon) | TGI (KM12 colon) | TGI (M14 melanoma) | TGI (NCI-H23 lung) | TGI (OVCAR-3 ovarian) | TGI (OVCAR-8 ovarian) | TGI (RPMI-8226 leukemia) | TGI (SK-MEL-28 melanoma) | TGI (SNB-19 CNS)

CCOC(=O)C(=O)Nc1nc2c(OCC)cccc2s1
> 100 µM: TGI (ACHN renal) | TGI (HCT-116 colon) | TGI (KM12 colon) | TGI (M14 melanoma) | TGI (NCI-H23 lung) | TGI (OVCAR-3 ovarian) | TGI (OVCAR-8 ovarian) | TGI (RPMI-8226 leukemia) | TGI (SK-MEL-28 melanoma) | TGI (SNB-19 CNS)

— PubChem BioAssay (NCI)
